Molecules are shown by their SMILES. Read-outs that look alike come from different tables or passages of the source.

For one assay, the target named is T1, hCA II (Homo sapiens, UniProt P00918).
T1 construct: gene CA2; native enzyme purified from human blood; cytosolic isoform
The assay is described as follows: esterase inhibition assay. Format: biochemical. The text has this: esterase inhibition assay on hCA II

In a further assay the target is T2, hCA I (Homo sapiens, UniProt P00915).
T2 construct: gene CA1; native enzyme purified from human blood; cytosolic isoform
T2 sequence (P00915 2-261): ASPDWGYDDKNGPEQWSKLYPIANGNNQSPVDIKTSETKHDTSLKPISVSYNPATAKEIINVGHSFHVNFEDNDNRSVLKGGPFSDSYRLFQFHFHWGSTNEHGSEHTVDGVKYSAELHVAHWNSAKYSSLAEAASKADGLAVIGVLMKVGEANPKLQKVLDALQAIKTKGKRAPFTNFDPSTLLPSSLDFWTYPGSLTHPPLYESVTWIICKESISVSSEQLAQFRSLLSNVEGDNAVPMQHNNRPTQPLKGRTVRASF
The assay is described as follows: esterase inhibition assay. Format: biochemical. From the text:
esterase inhibition assay on hCA I

[1] abbreviates: substrate 4-nitrophenyl acetate.

By Ki is commonly meant the dissociation constant of the complex between target and ligand, obtained from inhibition or displacement. Higher therefore signals weaker binding. As to `COc1ccc(/N=N/Nc2cccc(S(N)(=O)=O)c2)cc1` [compound 5, 3-(3-(4-Methoxyphenyl)triaz-1-en-1-yl) benzenesulfonamide], the figures for the Ki on hCA II and on hCA I were 21 ± 4 nM and 42 ± 8 nM, respectively.

For the compound `NS(=O)(=O)c1cccc(N=NNc2ccc(Br)cc2)c1` [compound 3, 3-(3-(4-Bromophenyl)triaz-1-en-1-yl) benzenesulfonamide], the figures for the Ki on hCA II and on hCA I were 19 ± 4 nM and 57 ± 3 nM, respectively.

Regarding `NS(=O)(=O)c1cccc(N=NNc2cccc(Cl)c2)c1` [compound 7, 3-(3-(3-Chlorophenyl)triaz-1-en-1-yl) benzenesulfonamide], the Ki on hCA II turned out to be 22 ± 6 nM; at hCA I, 53 ± 15 nM.

`NS(=O)(=O)c1cccc(N=NNc2ccccc2Cl)c1` [compound 10, 3-(3-(2-Chlorophenyl)triaz-1-en-1-yl) benzenesulfonamide]: the results for the Ki on hCA II and on hCA I were 20 ± 5 nM and 46 ± 12 nM, respectively.

With `NS(=O)(=O)c1cccc(N=NNc2ccccc2Br)c1` [compound 12, 3-(3-(2-Bromophenyl)triaz-1-en-1-yl) benzenesulfonamide], the inhibitory constant (Ki) on hCA II came to 40 ± 2 nM; at hCA I, 61 ± 1 nM.

With `NS(=O)(=O)c1cccc(N=NNc2ccccc2)c1` [compound 1, 3–(3-Pheynltriaz-1-en-1-yl)benzenesulfonamide], the Ki is 18 ± 5 nM at hCA II and 28 ± 6 nM on hCA I.

In the case of `NS(=O)(=O)c1cccc(N=NNc2ccc(F)cc2)c1` [compound 2, 3-(3-(4-Fluorophenyl)triaz-1-en-1-yl) benzenesulfonamide], the results for the Ki at hCA II and at hCA I (setting [1]) were 21 ± 9 nM and 21 ± 4 nM, respectively.

As for `NS(=O)(=O)c1cccc(N=NNc2ccccc2F)c1` [compound 11, 3-(3-(2-Fluorophenyl)triaz-1-en-1-yl) benzenesulfonamide], the inhibition constant (Ki) on hCA II was 33 ± 9 nM; at hCA I, 72 ± 2 nM.

For the compound `CCc1ccc(NN=Nc2cccc(S(N)(=O)=O)c2)cc1` [compound 6, 3-(3-(4-Ethylphenyl)triaz-1-en-1-yl) benzenesulfonamide], the Ki at hCA II came out at 16 ± 2 nM; on hCA I, 49 ± 2 nM.

For `COc1cccc(NN=Nc2cccc(S(N)(=O)=O)c2)c1` [compound 9, 3-(3-(3-Methoxyphenyl)triaz-1-en-1-yl) benzenesulfonamide], the Ki on hCA II amounted to 23 ± 2 nM; on hCA I it was 33 ± 5 nM.

As for `NS(=O)(=O)c1cccc(N=NNc2cccc(F)c2)c1` [compound 8, 3-(3-(3-Fluorophenyl)triaz-1-en-1-yl) benzenesulfonamide], the Ki on hCA II is 28 ± 6 nM; at hCA I, 36 ± 3 nM.

Take `CCOc1ccc(NN=Nc2cccc(S(N)(=O)=O)c2)cc1` [compound 4, 3-(3-(4-Ethoxyphenyl)triaz-1-en-1-yl) benzenesulfonamide]: the inhibitory constant (Ki) on hCA II (setting [1]) worked out at 16 ± 6 nM; at hCA I it was 38 ± 4 nM.

These data come from PMC6913647, “Novel sulphonamides incorporating triazene moieties show powerful carbonic anhydrase I and II inhibitory properties” (Journal of Enzyme Inhibition and Medicinal Chemistry, 2019).
